Measurements published in patent US9278962B2 (Cytokinetics, Inc., priority 2011, dated 2016).

System: rabbit skeletal myofibrils (approximately 90% fast fibers)
Assay: Activation of fast skeletal myofibrils (PUMA coupled-enzyme ATPase assay, AC1.4)
Type: biochemical
Conditions: Table 2; concentration at which the compound increased enzymatic activity by 40%; calcium at pCa25

Mean AC1.4	SMILES
B (B=1-10 uM)	CC(C)(CNc1nc(-c2ccccn2)ns1)c1ccc(F)cc1 [[2-(4-fluorophenyl)-2-methylpropyl](3-(2-pyridyl)(1,2,4-thiadiazol-5-yl))amine]
B (B=1-10 uM)	CC(C)(CNc1nc(-c2cccnc2)ns1)c1ccc(F)cc1 [[2-(4-fluorophenyl)-2-methylpropyl](3-(3-pyridyl)(1,2,4-thiadiazol-5-yl))amine]
B (B=1-10 uM)	CC(C)(CNc1nc(-c2ccncc2)ns1)c1ccc(F)cc1 [[2-(4-fluorophenyl)-2-methylpropyl](3-(4-pyridyl)(1,2,4-thiadiazol-5-yl))amine]
D (D=>20 uM)	CC(C)(CNc1nc(N2CCOCC2)ns1)c1ccc(F)cc1 [[2-(4-fluorophenyl)-2-methylpropyl](3-morpholin-4-yl(1,2,4-thiadiazol-5-yl))amine]
B (B=1-10 uM)	CC(C)(CNc1nc(-c2ccccc2)ns1)c1ccc(F)cc1 [[2-(4-fluorophenyl)-2-methylpropyl](3-phenyl(1,2,4-thiadiazol-5-yl))amine]
B (B=1-10 uM)	CC(C)(CNc1nc(-c2cn[nH]c2)ns1)c1ccc(F)cc1 [[2-(4-fluorophenyl)-2-methylpropyl](3-pyrazol-4-yl(1,2,4-thiadiazol-5-yl))amine]
B (B=1-10 uM)	C=Cc1nsc(NCC(C)(C)c2ccc(F)cc2)n1 [[2-(4-fluorophenyl)-2-methylpropyl](3-vinyl(1,2,4-thiadiazol-5-yl))amine]
B (B=1-10 uM)	CC(C)(CNc1ncns1)c1ccc(F)cc1 [[2-(4-fluorophenyl)-2-methylpropyl]-1,2,4-thiadiazol-5-ylamine]
B (B=1-10 uM)	Cn1cc(-c2nsc(NCC(C)(C)c3ccc(F)cc3)n2)cn1 [[2-(4-fluorophenyl)-2-methylpropyl][3-(1-methylpyrazol-4-yl)(1,2,4-thiadiazol-5-yl]
D (D=>20 uM)	CC(C)(CNc1nc(CCN2CCCCC2)ns1)c1ccc(F)cc1 [[2-(4-fluorophenyl)-2-methylpropyl][3-(2-piperidylethyl)(1,2,4-thiadiazol-5-yl)]amine]
B (B=1-10 uM)	COCCCc1nsc(NCC(C)(C)c2ccc(F)cc2)n1 [[2-(4-fluorophenyl)-2-methylpropyl][3-(3-methoxypropyl)(1,2,4-thiadiazol-5-yl)]amine]
B (B=1-10 uM)	COc1cncc(-c2nsc(NCC(C)(C)c3ccc(F)cc3)n2)c1 [[2-(4-fluorophenyl)-2-methylpropyl][3-(5-methoxy(3-pyridyl))(1,2,4-thiadiazol-5-yl)]amine]
B (B=1-10 uM)	COc1ccc(-c2nsc(NCC(C)(C)c3ccc(F)cc3)n2)cn1 [[2-(4-fluorophenyl)-2-methylpropyl][3-(6-methoxy(3-pyridyl))(1,2,4-thiadiazol-5-yl)]amine]
C (C=10-20 uM)	CC(C)(CNc1nc(CN2CCNCC2)ns1)c1ccc(F)cc1 [[2-(4-fluorophenyl)-2-methylpropyl][3-(piperazinylmethyl)(1,2,4-thiadiazol-5-yl)]amine]
D (D=>20 uM)	CC(C)(CNc1nc(CN2CCCCC2)ns1)c1ccc(F)cc1 [[2-(4-fluorophenyl)-2-methylpropyl][3-(piperidylmethyl)(1,2,4-thiadiazol-5-yl)]amine]
D (D=>20 uM)	CC(C)(CNc1nc(CN2CCCC2)ns1)c1ccc(F)cc1 [[2-(4-fluorophenyl)-2-methylpropyl][3-(pyrrolidinylmethyl)(1,2,4-thiadiazol-5-yl)]amine]
C (C=10-20 uM)	CN1CCN(CCc2nsc(NCC(C)(C)c3ccc(F)cc3)n2)CC1 [[2-(4-fluorophenyl)-2-methylpropyl]{3-[2-(4-methylpiperazinyl)ethyl](1,2,4-thiadiazol-5-yl)}amine]
D (D=>20 uM)	COCCNc1nsc(NCC(C)(C)c2ccc(F)cc2)n1 [[2-(4-fluorophenyl)-2-methylpropyl]{3-[(2-methoxyethyl)amino](1,2,4-thiadiazol-5-yl)}amine]
